Source: patent US20240400589A1, “4-AMINOPHENYLPHOSPHO[…] FOR BLOCKING C-REACTIVE PROTEIN” (Pentracor GmbH, priority 2021, published 2024)
Like-named read-outs stand apart in the source and are kept apart here. Where a SMILES comes first, the peptide text is derived from it. The star is where a group is joined. X1 = C[N+](C)(C)CCOP(=O)([O-])Oc1ccc(N*)cc1

Key:
[1] = biological target: T1, CRP (CRP-containing human plasma) (Homo sapiens, UniProt P02741); assay: Inhibition of CRP binding to a plate-coated BSA-APPC construct
T1 construct: from tissue; host or cells: human plasma
T1 sequence (P02741 19-224): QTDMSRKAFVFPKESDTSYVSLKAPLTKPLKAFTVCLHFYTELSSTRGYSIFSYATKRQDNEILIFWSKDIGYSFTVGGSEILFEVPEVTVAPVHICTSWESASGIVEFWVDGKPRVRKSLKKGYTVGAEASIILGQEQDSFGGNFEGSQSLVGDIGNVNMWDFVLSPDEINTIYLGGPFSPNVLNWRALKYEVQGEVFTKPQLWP
Method: A microtiter plate was coated with 100 μg/mL of a BSA-APPC construct, which binds CRP in a calcium-dependent manner, for 1 hour at room temperature (coating buffer: 0.1 M NaHCO3). Subsequently, 4 washes with 400 μl binding buffer (0.1 M Tris, 0.2 M NaCl, 2 mM CaCl2)) and non-specific binding sites were saturated with block solution (1% casein, 0.9% NaCl, 0.001% thiomersal) for 1 h at room temperature or overnight at 2-8° C.
Afterwards, the block solution was removed and the samples were applied in binding buffer. CRP-containing human plasma was diluted to 50 ng/mL CRP and applied either pure or together with different concentrations (0.25-3 mM) of the various inhibitors 1, 4, 5 and APPC and incubated for 1.5 h at room temperature with horizontal shaking (600 rpm). The plate was then washed again as described above.
After washing, 100 μL of a POD-labelled rabbit anti-huCRP antibody (final concentration: 25 ng/mL) in calcium-containing block solution (final concentration of calcium 4 mM) was added and the plate was incubated for 1.5 h at room temperature with shaking.
The plate was then washed again as described above. Development was carried out by adding 100 μl substrate buffer (0.2 M citric acid, 0.01% H2O2, 100 μg/mL TMB). The colour reaction was stopped by adding 50 μL of 1 M H2SO4 and the absorbance was measured at 450 nm. The absorbance at 655 nm (turbidity) was subtracted as background.
For the determination of inhibition, the OD of the CRP with inhibitor was normalised to the OD of the CRP without inhibitor:
The relative OD was then plotted against the concentration of stabilised APPC constructs in the batch. Only APPC was used as a comparative sample. It is clear that constructs 1 and 5 or 3 and APPC show an inhibition curve that is identical within the measurement uncertainty. […] For APPC/3, the corresponding concentration is 0.7±0.06 mmol/L. Thus, all stabilised APPC constructs show a good inhibition capacity.

huCRP [2] = biological target: T2, huCRP (Homo sapiens, UniProt P02741); assay: ELISA: binding of free CRP and free biotin-D-Glu(APPC)-NH2 in solution, complex captured on streptavidin plates; conditions: for Optical Density (OD): mean of duplicates
T2 sequence (P02741 19-224): T1 sequence (P02741 19-224)
Method: CRP and compound 2 were incubated in a reaction vessel for 1 h at room temperature for complexation. The final concentrations were 10 μg/ml CRP (MW approx. 125 KD) and 2 μg/ml compound 2 (MW approx. 1 KD). The solution was then added to streptavidin-coated microtiter plates (MTP) at the dilution levels indicated in Tab. 2 at […] each and incubated with a block solution (Roche) for 30 min at room temperature. The MTPs were then washed 3 times. Using the in house monoclonal antibody “DH7” specific for huCRP and a peroxidase-conjugated secondary antibody (anti-mouse) as well as the substrate TMB, the huCRP previously bound to compound 2 was detected.

huCRP [3] = biological target: T2, huCRP; assay: ELISA: binding of CRP to solid phase-fixed biotin-D-Glu(APPC)-NH2 on streptavidin-coated microtiter plates; conditions: for Optical Density (OD): mean of duplicates
Method: Streptavidin-coated microtiter plates were incubated with a solution containing biotin-D-Glu(APPC)—NH2) (2) and then washed with phosphate buffer (PBS). The reactive parts of the MTP surface were then blocked with BSA solution (a standard procedure). CRP was then added in a concentration range of 31-500 ng/ml and incubated (see table below). After renewed washing, the bound CRP was detected using a murine monoclonal antibody (DH7) against CRP and a secondary, POD-conjugated anti-mouse antibody, followed by substrate development

[4] = 50 ng/mL CRP from human plasma, inhibitor 0.25-3 mM, BSA-APPC coated plate, read-out: 50% inhibitor concentration (IC50)

CC(=O)N1CCC[C@H]1C(=O)N[C@@H](C)C(=O)N[C@@H](CO)C(=O)N[C@@H](CCC(=O)Nc1ccc(OP(=O)([O-])OCC[N+](C)(C)C)cc1)C(=O)N1CCC[C@H]1C(=O)N[C@@H](C)C(=O)N[C@@H](CO)C(N)=O [Compound 5] (Ac-PASE(X1)PAS-NH2) showed an IC50 [1] of 1.6 ± 0.1 mM.

In the case of C[N+](C)(C)CCOP(=O)([O-])Oc1ccc(NC(=O)CC[C@@H](NC(=O)CCCC[C@@H]2SC[C@@H]3NC(=O)N[C@@H]32)C(N)=O)cc1 [Compound 2, Biotin-D-Glu(APPC)—NH2], the “Optical Density (OD)” value (huCRP [2]; complex dilution 1:20, 10 μg/ml CRP + 2 μg/ml compound 2) is reported as 2.685, the “Optical Density (OD)” value (huCRP [2]; complex dilution 1:40) is reported as 2.219 and the “Optical Density (OD)” value (huCRP [2]; complex dilution 1:80) is reported as 1.801. For the same compound, the “Optical Density (OD)” value (huCRP [2]; complex dilution 1:160) was 1.242, the “Optical Density (OD)” value (huCRP [2]; complex dilution 1:320) was 0.875 and the “Optical Density (OD)” value (huCRP [2]; complex dilution 1:640) was 0.548. The “Optical Density (OD)” value (huCRP [2]; complex dilution 1:1280) was 0.381, the “Binding of CRP in solution (dilution series, FIG. 2)” value (huCRP [2]; free CRP and free compound, 1 h room temperature) was “binds CRP in solution” and the “Optical Density (OD)” value (huCRP [3]; CRP 31 ng/ml) was 1.061. The “Optical Density (OD)” value (huCRP [3]; CRP 62.5 ng/ml) was 1.512, the “Optical Density (OD)” value (huCRP [3]; CRP 125 ng/ml) was 2.081 and the “Optical Density (OD)” value (huCRP [3]; CRP 250 ng/ml) was 2.627. For the same compound, the “Optical Density (OD)” value (huCRP [3]; CRP 500 ng/ml) was 3.242 and the “Binding to CRP (CRP binding curve, FIG. 1)” value (huCRP [3]; solid phase-fixed compound) was “binds to CRP”.

Work on C[N+](C)(C)CCOP(=O)([O-])Oc1ccc(NC(=O)CC[C@@H](N)C(N)=O)cc1 [Compound 1, D-Glu(APPC)—NH2] yielded an IC50 [1, 4] of 1.6 ± 0.1 mM.

For C[N+](C)(C)CCOP(=O)([O-])Oc1ccc(N)cc1 [APPC, 4-aminophenylphosphocholine, reference compound], the IC50 [1, 4] was 0.7 ± 0.06 mM.
